Article PMC7926623 (Marine Drugs, 2021)

Target: rat α6/α3β2β3 nAChR (Rattus norvegicus, UniProt P04757+P12390+P43143)
Assay type: cell-based

Chain of rat α6/α3β2β3 nAChR (P04757 whole entry, looked up): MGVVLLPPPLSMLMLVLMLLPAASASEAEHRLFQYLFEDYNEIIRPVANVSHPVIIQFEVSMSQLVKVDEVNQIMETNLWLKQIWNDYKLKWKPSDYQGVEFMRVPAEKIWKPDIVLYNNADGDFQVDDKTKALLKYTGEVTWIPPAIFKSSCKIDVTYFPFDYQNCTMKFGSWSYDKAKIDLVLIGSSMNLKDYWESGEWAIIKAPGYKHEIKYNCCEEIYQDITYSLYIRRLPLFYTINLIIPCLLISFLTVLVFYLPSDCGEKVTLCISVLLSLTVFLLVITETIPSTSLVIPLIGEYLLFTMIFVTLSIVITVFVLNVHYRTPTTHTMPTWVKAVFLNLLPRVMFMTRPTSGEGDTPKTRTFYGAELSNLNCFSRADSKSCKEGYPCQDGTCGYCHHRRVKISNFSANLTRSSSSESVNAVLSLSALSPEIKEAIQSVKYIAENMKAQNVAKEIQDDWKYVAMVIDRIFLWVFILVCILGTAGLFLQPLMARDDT
Chain of rat α6/α3β2β3 nAChR (P12390 whole entry, looked up): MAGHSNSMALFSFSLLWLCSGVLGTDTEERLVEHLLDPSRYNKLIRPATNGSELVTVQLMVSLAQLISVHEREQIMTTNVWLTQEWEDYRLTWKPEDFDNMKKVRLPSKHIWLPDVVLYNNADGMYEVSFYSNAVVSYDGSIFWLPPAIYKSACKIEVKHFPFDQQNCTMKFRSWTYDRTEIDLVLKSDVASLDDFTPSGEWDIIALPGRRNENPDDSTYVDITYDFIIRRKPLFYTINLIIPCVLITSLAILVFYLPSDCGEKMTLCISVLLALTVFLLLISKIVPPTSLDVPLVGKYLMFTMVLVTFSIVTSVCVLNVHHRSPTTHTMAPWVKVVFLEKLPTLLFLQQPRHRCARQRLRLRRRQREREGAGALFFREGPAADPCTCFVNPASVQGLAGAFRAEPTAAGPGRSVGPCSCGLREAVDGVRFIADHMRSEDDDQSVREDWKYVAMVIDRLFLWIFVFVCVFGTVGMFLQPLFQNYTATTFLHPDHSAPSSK
Chain of rat α6/α3β2β3 nAChR (P43143 whole entry, looked up): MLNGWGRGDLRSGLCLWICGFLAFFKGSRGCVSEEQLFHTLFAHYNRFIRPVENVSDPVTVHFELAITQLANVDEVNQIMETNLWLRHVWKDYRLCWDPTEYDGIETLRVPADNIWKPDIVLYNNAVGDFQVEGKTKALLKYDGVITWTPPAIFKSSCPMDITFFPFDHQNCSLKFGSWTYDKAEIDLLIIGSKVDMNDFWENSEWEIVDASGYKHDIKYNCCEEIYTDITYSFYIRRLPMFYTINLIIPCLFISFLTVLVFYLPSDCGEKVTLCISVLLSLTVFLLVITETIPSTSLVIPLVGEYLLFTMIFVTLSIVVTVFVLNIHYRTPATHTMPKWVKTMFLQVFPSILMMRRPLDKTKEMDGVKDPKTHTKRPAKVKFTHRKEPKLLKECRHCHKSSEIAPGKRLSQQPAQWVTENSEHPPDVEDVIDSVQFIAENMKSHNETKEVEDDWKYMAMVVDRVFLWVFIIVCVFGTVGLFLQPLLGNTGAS

α-Conotoxin TxIB was tested, and the “inhibition on α6/α3β2β3 nAChR” value was “about 88%”.
